From patent US4032654A, “Water-soluble, liquid concentrates of S-methyl-[(methyl-carbamoyl)oxy]-thioacetimidate and methyl N', N'-dimethyl-N-[(methyl-carbamoyl)oxy]-1-thiooxamimidate” (priority 1975, dated 1977)
Values after ≈ are worked out from the molar mass of the structure shown. Where two headings read alike, the source gives them in different places.

Key:
[1] = physchem; conditions: -6° C.
Description: Methomyl and oxamyl were added to various methanol:water solvent systems ranging from 100 wt. % CH3 OH to 30 wt. % CH3 OH:70 wt. % H2 O. […] The samples were equilibrated at -6° C. in a constant temperature freezer after which they were seeded with methomyl and oxamyl crystals to ensure crystallization of both materials. After crystal-liquid equilibrium was assured, liquid was removed at -6° C. and assayed for methomyl and oxamyl. Solids were also removed at -6° C., washed with hexane and dried. The solids were then dissolved in methanol to yield a 10 wt. % solution. This solution was evaluated by thin layer chromatography (TLC) to ensure the solids consisted of both methomyl and oxamyl.
Solubility of Methomyl and Oxamyl 1:2.5 wt. ratio in CH3 OH:H2 O at -6° C.
Example 3 was repeated by dissolving methomyl and oxamyl in a 1:2.5 weight ratio in the same solvent systems under the same conditions.

[2] = 80:20 wt acetone/H2O, -6° C.; for Solubility, both actives in solvent: Methomyl: with oxamyl
Description: Solubility of Methomyl and Oxamyl 80:20 Wt. Ratio Acetone:H2 O
Methomyl and oxamyl were dissolved in a solvent system consisting of 80 wt. % acetone and 20 wt. % water separately and in 1:1, 2:1 and 1:2.5 wt. ratios of methomyl and oxamyl. These solutions were equilibrated at -6° C. and were seeded with methomyl and/or oxamyl. They remained at -6° C. until solid-liquid equilibrium was assured. Liquid was removed from each sample at -6° C. and assayed for methomyl and oxamyl. Solids were also removed at -6° C., washed, dried and dissolved in methanol to yield a 10 wt. % solution which was evaluated by TLC for oxamyl and methomyl.

[3] = 60% cyclohexanone, 10% methanol, 30% water, -6° C.; for Solubility, both actives in solvent: Methomyl: with oxamyl
Description: Methomyl and/or oxamyl were added to a solvent system consisting of 60% cyclohexanone, 10% methanol and 30% water at room temperature at a concentration higher than the solubility limit at -6° C. The methomyl and oxamyl were added together, at weight ratios of 2:1, 1:1 and 1:2.5. The solutions were cooled to -6° C. and seeded with methomyl and/or oxamyl to initiate crystallization. The solutions remained at -6° C. until equilibrium was assured. The supernatant liquid in each sample was analyzed for methomyl and oxamyl by liquid chromatography.

[4] = physchem
Description: Methomyl and oxamyl were added to various methanol:water solvent systems ranging from 100% CH3 OH to 40% CH3 OH:60% H2 O. The methomyl and oxamyl were dissolved separately or combined on a 1:1 weight ratio in the solvent systems at room temperature at a concentration exceeding the solubility limit at -6° C. Each sample was seeded with methomyl and/or oxamyl at -6° C. and allowed to crystallize until equilibrium was established. The supernatant liquid of each sample was assayed for methomyl and/or oxamyl by liquid chromatography.

[5] = 30% cyclohexanone, 30% cyclohexanol, 30% water, 10% methanol, -6° C.; for Solubility, both actives in solvent: Methomyl: with oxamyl
Description: Methomyl and Oxamyl Solubility In Cyclohexanone, Cyclohexanol, CH3 OH and H2 O at -6° C.
Methomyl and oxamyl were dissolved separately and in weight ratios of 1:1, 2:1 and 1:2.5 methomyl to oxamyl in a solvent system consisting of 30 wt. % cyclohexanone, 30 wt. % cyclohexanol, 30 wt. % water and 10 wt. % methanol. These solutions were equilibrated at -6° C. and seeded with methomyl and/or oxamyl crystals. The samples of liquid and solids remained at -6° C. until solid-liquid equilibrium was assured. A liquid sample was removed from each at -6° C. and assayed for methomyl and/or oxamyl. Solids were also isolated at -6° C., washed, dried and dissolved in CH3 OH to yield a 10% solution which was analyzed by TLC to ensure both methomyl and oxamyl crystals were present in the solids of the combination sample. All such solids contained both oxamyl and methomyl.
SOLUBILITY OF METHOMYL AND OXAMYL (2:1, 1:1 and 1:2.5 Wt.
RATIOS) IN CYCLOHEXANONE, CYCLOHEXANOL, CH3 OH AND H2 O

In the case of `CNC(=O)ON=C(C)SC` [Methomyl], the solubility ([1]; 30/70 ch3oh/h2o, both actives in solvent: Methomyl, with oxamyl, 1:2.5 wt., 30/70 CH3OH/H2O) is reported as 156 mg/mL (≈ 962 mM), the solubility ([1]; 40/60 ch3oh/h2o, Methomyl alone in solvent, alone) is reported as 62 mg/mL (≈ 382 mM) and the solubility ([1]; 40/60 ch3oh/h2o, both actives in solvent: Methomyl, with oxamyl, 1:2.5 wt., 40/60 CH3OH/H2O) is reported as 288 mg/mL (≈ 1780 mM). For the same compound, the solubility ([1]; 50/50 ch3oh/h2o, Methomyl alone in solvent, alone) was 105 mg/mL (≈ 647 mM), the solubility ([1]; 50/50 ch3oh/h2o, both actives in solvent: Methomyl, with oxamyl, 1:2.5 wt., 50/50 CH3OH/H2O) was 411 mg/mL (≈ 2530 mM) and the solubility ([1]; 60/40 ch3oh/h2o, Methomyl alone in solvent, alone) was 155 mg/mL (≈ 956 mM). It also gave a solubility ([1]; 60/40 ch3oh/h2o, both actives in solvent: Methomyl, with oxamyl, 1:2.5 wt., 60/40 CH3OH/H2O) of 440 mg/mL (≈ 2710 mM), a solubility ([1]; 70/30 ch3oh/h2o, Methomyl alone in solvent, alone) of 206 mg/mL (≈ 1270 mM) and a solubility ([1]; 70/30 ch3oh/h2o, both actives in solvent: Methomyl, with oxamyl, 1:2.5 wt., 70/30 CH3OH/H2O) of 220 mg/mL (≈ 1360 mM). It also gave a solubility ([1]; 80/20 ch3oh/h2o, Methomyl alone in solvent, alone) of 263 mg/mL (≈ 1620 mM), a solubility ([1]; 80/20 ch3oh/h2o, both actives in solvent: Methomyl, with oxamyl, 1:2.5 wt., 80/20 CH3OH/H2O) of 573 mg/mL (≈ 3530 mM) and a solubility ([1]; 90/10 ch3oh/h2o, Methomyl alone in solvent, alone) of 299 mg/mL (≈ 1840 mM). For the same compound, the solubility ([1]; 90/10 ch3oh/h2o, both actives in solvent: Methomyl, with oxamyl, 1:2.5 wt., 90/10 CH3OH/H2O) was 699 mg/mL (≈ 4310 mM), the “Solubility, Methomyl alone in solvent” value ([1]; alone, 100/0 CH3OH/H2O) was 30.7 gms/100 gms and the “Solubility, both actives in solvent: Methomyl” value (“Solubility, both actives” below) ([1]; with oxamyl, 1:2.5 wt., 100/0 CH3OH/H2O) was 71.1 gms/100 gms. For the same compound, the “Solubility, Methomyl alone in solvent” value ([2]; alone) was 41.4 gms/100 gms solvent, the “Solubility, both actives” value ([2]; ratio 1:1) was 67.0 gms/100 gms solvent and the “Solubility, both actives” value ([2]; ratio 1:2.5) was 66.6 gms/100 gms solvent. For the same compound, the “Solubility, both actives” value ([2]; ratio 2:1) was 64.8 gms/100 gms solvent, the “Solubility, Methomyl alone in solvent” value ([3]; alone) was 29.5 gms/100 gms solvent and the “Solubility, both actives” value ([3]; ratio 1:1) was 46.2 gms/100 gms solvent. The “Solubility, both actives” value ([3]; ratio 1:2.5) was 66.6 gms/100 gms solvent, the “Solubility, both actives” value ([3]; ratio 2:1) was 64.8 gms/100 gms solvent and the solubility ([4]; 40/60 ch3oh/h2o, Methomyl alone in solvent, alone, -6° C.) was 62 mg/mL (≈ 382 mM). It also gave a solubility ([4]; 40/60 ch3oh/h2o, both actives in solvent: Methomyl, with oxamyl 1:1 wt., 40/60 CH3OH/H2O, -6° C.) of 188 mg/mL (≈ 1160 mM), a solubility ([4]; 50/50 ch3oh/h2o, Methomyl alone in solvent, alone, -6° C.) of 105 mg/mL (≈ 647 mM) and a solubility ([4]; 50/50 ch3oh/h2o, both actives in solvent: Methomyl, with oxamyl 1:1 wt., 50/50 CH3OH/H2O, -6° C.) of 237 mg/mL (≈ 1460 mM). For the same compound, the solubility ([4]; 60/40 ch3oh/h2o, Methomyl alone in solvent, alone, -6° C.) was 155 mg/mL (≈ 956 mM), the solubility ([4]; 60/40 ch3oh/h2o, both actives in solvent: Methomyl, with oxamyl 1:1 wt., 60/40 CH3OH/H2O, -6° C.) was 355 mg/mL (≈ 2190 mM) and the solubility ([4]; 70/30 ch3oh/h2o, Methomyl alone in solvent, alone, -6° C.) was 208 mg/mL (≈ 1280 mM). The solubility ([4]; 70/30 ch3oh/h2o, both actives in solvent: Methomyl, with oxamyl 1:1 wt., 70/30 CH3OH/H2O, -6° C.) was 438 mg/mL (≈ 2700 mM), the solubility ([4]; 80/20 ch3oh/h2o, Methomyl alone in solvent, alone, -6° C.) was 263 mg/mL (≈ 1620 mM) and the solubility ([4]; 80/20 ch3oh/h2o, both actives in solvent: Methomyl, with oxamyl 1:1 wt., 80/20 CH3OH/H2O, -6° C.) was 581 mg/mL (≈ 3580 mM). For the same compound, the solubility ([4]; 90/10 ch3oh/h2o, Methomyl alone in solvent, alone, -6° C.) was 299 mg/mL (≈ 1840 mM), the solubility ([4]; 90/10 ch3oh/h2o, both actives in solvent: Methomyl, with oxamyl 1:1 wt., 90/10 CH3OH/H2O, -6° C.) was 664 mg/mL (≈ 4090 mM) and the “Solubility, Methomyl alone in solvent” value ([4]; alone, 100/0 CH3OH/H2O, -6° C.) was 30.7 gms/100 gms. The “Solubility when dissolved together in the solvents taught” value ([4]; summary of Examples 2-7) was “increases in solubility occur”, the “Solubility, both actives” value ([4]; with oxamyl 1:1 wt., 100/0 CH3OH/H2O, -6° C.) was 63.9 gms/100 gms and the “Solubility, Methomyl alone in solvent” value ([5]; alone) was 24.5 gms/100 gms solvent. For the same compound, the “Solubility, both actives” value ([5]; ratio 1:1) was 39.6 gms/100 gms solvent, the “Solubility, both actives” value ([5]; ratio 1:2.5) was 40.2 gms/100 gms solvent and the “Solubility, both actives” value ([5]; ratio 2:1) was 42.7 gms/100 gms solvent.
